This note sets out measurements from patent US12391686B2, “Compounds and uses thereof” (Foghorn Therapeutics Inc., priority 2019, dated 2025).

The target in test [1] is T1, BRD9 bromodomain (Flag-BRD9 P133-K239; Swiss Prot Q9H8M2) (Homo sapiens, UniProt Q9H8M2).
T1 construct: His-Flag-BRD9 (P133-K239); Swiss Prot Q9H8M2; His6 with TEV site (mgsshhhhhhenlyfq/) (N, cleaved yes); made in house
T1 sequence (Q9H8M2 133-239): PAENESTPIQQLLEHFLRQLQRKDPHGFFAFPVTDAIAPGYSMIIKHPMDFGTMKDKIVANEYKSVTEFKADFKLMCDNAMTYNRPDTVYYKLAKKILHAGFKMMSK
Nature of the test: BRD9 Bromodomain TR-FRET Competition Binding Assay. Conditions: competition with biotinylated BRD9 ligand; 90 minutes at room temperature. The protocol:
Procedure: His-Flag-BRD9 (P133-K239; Swiss Prot Q9H8M2; SEQ ID NO:1 mgsshhhhhhenlyfq/gdykddddkgslevlfqg/[…] […]) was cloned, expressed, purified, and then treated with TEV protease. Cleaved His tag was removed by purification. The binding of a biotinylated small molecule ligand of BRD9 was assessed via the LANCE® TR-FRET platform (PerkinElmer), and the compounds were assayed for inhibitory activity against this interaction.
Results: A mixture of biotinylated-ligand and SureLight™ Allophycocyanin-Streptavidin (APC-SA, PerkinElmer AD0201) in 50 mM HEPES (pH 7.4), 50 mM NaCl, 1 mM TCEP (pH 7), 0.01% (v/v) Tween-20, 0.01% (w/v) bovine serum albumin was added to a white 384-well PerkinElmer Proxiplate Plus plate. DMSO or 3-fold serially diluted compounds were then added to the Proxiplate followed by addition of Flag-BRD9. After a 10-minute incubation at room temperature, Eu-W1024 anti-FLAG (PerkinElmer, AD0273) was added. The final reaction mixture that contained 3.75 nM biotinylated ligand, 3 nM Flag-BRD9, 7.5 nM SureLight™ Allophycocyanin-Streptavidin, and 0.2 nM Eu-W1024 anti-FLAG was incubated at room temperature for 90 minutes.
The plates were then read on a PerkinElmer Envision plate reader to determine the ratio of emission at 665 nm over 615 nm. […]

Test [2] has as its target T2, Nanoluciferase-BRD9 fusion protein (3×FLAG-NLuc-BRD9) in SYO-1 cells (Homo sapiens, UniProt Q9H8M2).
T2 construct: expressed in transfected cells; host or cells: SYO-1
T2 sequence (Q9H8M2 1-597): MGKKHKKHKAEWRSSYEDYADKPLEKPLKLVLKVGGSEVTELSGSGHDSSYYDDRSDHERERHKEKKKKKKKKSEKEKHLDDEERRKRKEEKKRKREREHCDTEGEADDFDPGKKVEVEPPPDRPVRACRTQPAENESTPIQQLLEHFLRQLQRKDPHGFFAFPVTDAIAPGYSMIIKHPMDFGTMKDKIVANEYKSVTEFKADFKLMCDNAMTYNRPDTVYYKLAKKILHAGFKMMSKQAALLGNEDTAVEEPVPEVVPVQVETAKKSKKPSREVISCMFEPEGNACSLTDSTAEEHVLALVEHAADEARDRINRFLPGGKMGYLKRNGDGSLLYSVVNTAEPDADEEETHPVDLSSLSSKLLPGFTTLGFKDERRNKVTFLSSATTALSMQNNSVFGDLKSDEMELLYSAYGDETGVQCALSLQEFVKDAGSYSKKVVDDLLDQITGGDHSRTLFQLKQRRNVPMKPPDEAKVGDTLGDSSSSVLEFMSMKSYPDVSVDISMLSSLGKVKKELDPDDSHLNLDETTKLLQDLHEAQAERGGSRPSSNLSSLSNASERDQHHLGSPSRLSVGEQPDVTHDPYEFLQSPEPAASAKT
The test can be described thus: SYO1 BRD9 NanoLuc Degradation Assay. Type of test: cell-based. Conditions: 6 hours; SYO-1 cells expressing 3×FLAG-NLuc-BRD9; top dose 1 μM; read-out: SYO1 BRD9-NanoLuc degradation IC50. In outline:
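Stable 3×FLAG-NLuc-BRD9 SYO-1 line, 8000 cells/well, dosed day 1 with 10-point 3-fold dilutions (1 μM final top, duplicates) for 6 h. NanoLuc bioluminescence read with Nano-Glo; % inhibition relative to DMSO (high) and 1 μM reference BRD9 degrader (low) controls.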

With `COc1cc(-c2cn(C)c(=O)c3cnc(N(C)C)cc23)cc(OC)c1CN1CC[C@H]1CN(C)Cc1cccc2c1C(=O)N(C1CCC(=O)NC1=O)C2=O` (stereo partly drawn) [Compound D2, 4-(((((S)-1-(4-(6-(dimethylamino)-2-methyl-1-oxo-1,2-dihydro-2,7-naphthyridin-4-yl)-2,6-dimethoxybenzyl)azetidin-2-yl)methyl)(methyl)amino)methyl)-2-(2,6-dioxopiperidin-3-yl)isoindoline-1,3-dione], in test [1], the IC50 (commonly the point on the concentration scale where inhibition reaches its midpoint) was under 0.01 µM. For the same compound, the DC50 in test [2] is at least 0.1 µM.
In the case of `COc1cc(-c2cn(C)c(=O)c3cc(NCCOCCOCCNc4cccc5c4C(=O)N(C4CCC(=O)NC4=O)C5=O)ncc23)cc(OC)c1CN(C)C` (stereo not shown) [Compound D24, 4-[[2-(2-[2-[(8-[4-[(dimethylamino)methyl]-3,5-dimethoxyphenyl]-6-methyl-5-oxo-2,6-naphthyridin-3-yl)amino]ethoxy]ethoxy)ethyl]amino]-2-(2,6-dioxopiperidin-3-yl)isoindole-1,3-dione], the IC50 in test [1] is at least 0.01 µM. Besides, in test [2], the DC50 was at least 0.01 µM.
In test [1], `COc1cc(-c2cn(C)c(=O)c3cc(N(C)CC(=O)NCCCCCOc4cccc5c4C(=O)N(C4CCC(=O)NC4=O)C5=O)ncc23)cc(OC)c1CN(C)C` (stereo not shown) [Compound D12, 2-[(8-[4-[(dimethylamino)methyl]-3,5-dimethoxyphenyl]-6-methyl-5-oxo-2,6-naphthyridin-3-yl)(methyl)amino]-N-(5-[[2-(2,6-dioxopiperidin-3-yl)-1,3-dioxoisoindol-4-yl]oxy]pentyl)acetamide formic acid] yielded an IC50 of under 0.01 µM. In addition, in test [2], the DC50 was at least 0.01 µM.
`CNc1cc2c(=O)n(C)cc(-c3cc(OC)c(CN4CCN(C(=O)COc5cccc6c5C(=O)N(C5CCC(=O)NC5=O)C6=O)CC4)c(OC)c3)c2cn1` (stereo not shown) [Compound D29, 4-[2-[4-([2,6-dimethoxy-4-[2-methyl-7-(methylamino)-1-oxo-2,6-naphthyridin-4-yl]phenyl]methyl)piperazin-1-yl]-2-oxoethoxy]-2-(2,6-dioxopiperidin-3-yl)isoindole-1,3-dione] displayed an IC50 in test [1] of under 0.01 µM. Further, the DC50 in test [2] was under 0.01 µM.
The compound `COc1cc(-c2cn(C)c(=O)c3cnc(N(C)C)cc23)cc(OC)c1CN(C)CCOCCN1CCN(c2ccc3c(c2)C(=O)N(C2CCC(=O)NC2=O)C3=O)CC1` (stereo not shown) [Compound D21, 5-[4-(2-[2-[([4-[6-(dimethylamino)-2-methyl-1-oxo-2,7-naphthyridin-4-yl]-2,6-dimethoxyphenyl]methyl)(methyl)amino]ethoxy]ethyl)piperazin-1-yl]-2-(2,6-dioxopiperidin-3-yl)isoindole-1,3-dione] registered an IC50 in test [1] of under 0.01 µM. In addition, the DC50 in test [2] was under 0.01 µM.
For the compound `COc1cc(-c2cn(C)c(=O)c3cc(NC(=O)CCOCCOCCNc4cccc5c4C(=O)N(C4CCC(=O)NC4=O)C5=O)ncc23)cc(OC)c1CN(C)C` (stereo not shown) [Compound D9, N-(8-[4-[(dimethylamino)methyl]-3,5-dimethoxyphenyl]-6-methyl-5-oxo-2,6-naphthyridin-3-yl)-3-[2-(2-[[2-(2,6-dioxopiperidin-3-yl)-1,3-dioxoisoindol-4-yl]amino]ethoxy)ethoxy]propanamide], the IC50 in test [1] was at least 0.1 µM. Also, the DC50 in test [2] was at least 1 µM.
In test [1], `CNc1cc2c(=O)n(C)cc(-c3cc(OC)c(CN4CCC(CCN5CCN(c6ccc7c(c6)C(=O)N(C6CCC(=O)NC6=O)C7=O)CC5)CC4)c(OC)c3)c2cn1` (stereo not shown) [Compound D30, 5-(4-[2-[1-([2,6-dimethoxy-4-[2-methyl-7-(methylamino)-1-oxo-2,6-naphthyridin-4-yl]phenyl]methyl)piperidin-4-yl]ethyl]piperazin-1-yl)-2-(2,6-dioxopiperidin-3-yl)isoindole-1,3-dione formic acid] registered an IC50 of under 0.01 µM. The DC50 in test [2] is under 0.01 µM.
In test [1], `COc1cc(-c2cn(C)c(=O)c3cc(NCC(=O)NCCCCCOc4cccc5c4C(=O)N(C4CCC(=O)NC4=O)C5=O)ncc23)cc(OC)c1CN(C)C` (stereo not shown) [Compound D26, 2-[(8-[4-[(dimethylamino)methyl]-3,5-dimethoxyphenyl]-6-methyl-5-oxo-2,6-naphthyridin-3-yl)amino]-N-(5-[[2-(2,6-dioxopiperidin-3-yl)-1,3-dioxoisoindol-4-yl]oxy]pentyl) acetamide] showed an IC50 of at least 0.01 µM. The DC50 in test [2] was at least 0.01 µM.
`COc1cc(-c2cn(C)c(=O)c3cnc(N(C)C)cc23)cc(OC)c1CN1CCC2(CC1)CN(C(=O)CCCCOc1cccc3c1C(=O)N(C1CCC(=O)NC1=O)C3=O)CCO2` (stereo not shown) [Compound D27, 4-((5-(9-(4-(6-(dimethylamino)-2-methyl-1-oxo-1,2-dihydro-2,7-naphthyridin-4-yl)-2,6-dimethoxybenzyl)-1-oxa-4,9-diazaspiro[5.5]undecan-4-yl)-5-oxopentyl)oxy)-2-(2,6-dioxopiperidin-3-yl)isoindoline-1,3-dione formic acid]: the IC50 in test [1] is under 0.01 µM. In addition, in test [2], the DC50 is under 0.01 µM.
Regarding `COc1cc(-c2cn(C)c(=O)c3cnc(N(C)C)cc23)cc(OC)c1CN1CC(N(C)Cc2cccc3c2C(=O)N(C2CCC(=O)NC2=O)C3=O)C1` (stereo not shown) [Compound D3, 4-([[1-([4-[6-(dimethylamino)-2-methyl-1-oxo-2,7-naphthyridin-4-yl]-2,6-dimethoxyphenyl]methyl)azetidin-3-yl](methyl)amino]methyl)-2-(2,6-dioxopiperidin-3-yl)isoindole-1,3-dione formic acid], in test [1], the IC50 was under 0.01 µM. For the same compound, the DC50 in test [2] is at least 0.01 µM.
For `COc1cc(-c2cn(C)c(=O)c3cnc(N(C)C)cc23)cc(OC)c1CN1CC(S(=O)(=O)NCCN2CCN(c3ccc4c(c3)C(=O)N(C3CCC(=O)NC3=O)C4=O)CC2)C1` (stereo not shown) [Compound D28, 1-([4-[6-(dimethylamino)-2-methyl-1-oxo-2,7-naphthyridin-4-yl]-2,6-dimethoxyphenyl]methyl)-N-(2-[4-[2-(2,6-dioxopiperidin-3-yl)-1,3-dioxoisoindol-5-yl]piperazin-1-yl]ethyl)azetidine-3-sulfonamide], in that order: under 0.01 µM and under 0.01 µM.
In turn, `COc1cc(-c2cn(C)c(=O)c3cc(NC(=O)CCOCCOCCNc4ccc5c(c4)C(=O)N(C4CCC(=O)NC4=O)C5=O)ncc23)cc(OC)c1CN(C)C` (stereo not shown) [Compound D13, N-(8-[4-[(dimethylamino)methyl]-3,5-dimethoxyphenyl]-6-methyl-5-oxo-2,6-naphthyridin-3-yl)-3-[2-(2-[[2-(2,6-dioxopiperidin-3-yl)-1,3-dioxoisoindol-5-yl]amino]ethoxy)ethoxy]propanamide formic acid] yielded an IC50 in test [1] of at least 0.1 µM. In addition, the DC50 in test [2] was at least 1 µM.
Turning to `COc1cc(-c2cn(C)c(=O)c3cnc(N(C)CCOCCOCCNc4cccc5c4C(=O)N(C4CCC(=O)NC4=O)C5=O)cc23)cc(OC)c1CN(C)C` (stereo not shown) [Compound D31, 4-[10-(5-[4-[(dimethylamino)methyl]-3,5-dimethoxyphenyl]-7-methyl-8-oxo-2,7-naphthyridin-3-yl)-4,7-dioxa-1,10-diazaundecan-1-yl]-2-(2,6-dioxopiperidin-3-yl)isoindole-1,3-dione], the IC50 in test [1] was at least 0.01 µM. The DC50 in test [2] is at least 0.1 µM.
In test [1], `COc1cc(-c2cn(C)c(=O)c3cc(NCCCCCCCCNC(=O)COc4cccc5c4C(=O)N(C4CCC(=O)NC4=O)C5=O)ncc23)cc(OC)c1CN(C)C` (stereo not shown) [Compound D8, N-[8-[(8-[4-[(dimethylamino)methyl]-3,5-dimethoxyphenyl]-6-methyl-5-oxo-2,6-naphthyridin-3-yl)amino]octyl]-2-[[2-(2,6-dioxopiperidin-3-yl)-1,3-dioxoisoindol-4-yl]oxy]acetamide] returned an IC50 of at least 0.01 µM. Further, the DC50 in test [2] is at least 0.01 µM.
